Experiment [1] has as its system RCC associated with VHL disease. On the set-up: method as in PMID 34453144. Conditions: phase 2 clinical trial, all partial responses; cited from earlier work.
For experiment [2], the system named is CAIX and VEGF genes in MCF-7 cells. Nature of the experiment: qPCR of hypoxia-response genes in MCF-7 cells. The format is cell-based. Conditions: hypoxic MCF-7 cells, 2 μM. The method, then: (§1) The effect of our lead inhibitor on hypoxia-response signaling was measured by qPCR in cancer cell lines. Cells were treated with either 2 μM of an analogue of the HIF-2-specific inhibitor belzutifan, PT2399 (control), or 50 μM of cyclo-CRLII(4-iodo)F, incubated in hypoxia for […], and the levels of the hypoxia-response genes CAIX([41],[42]) and VEGF([43]) were measured by qPCR. We observed a 51% drop in CAIX transcription and a 43% drop in VEGF transcription in hypoxic MCF-7 (breast cancer) cells treated with 50 μM of cyclo-CRLII(4-iodo)F versus hypoxic MCF-7 cells treated with DMSO only (Figure 6e). […] We also observed a 49% drop in CAIX expression in hypoxic HeLa (cervical cancer) cells treated with cyclo-CRLII(4-iodo)F (Figure S9b). […] We observed a 35% drop in HIF-2-driven VEGF transcription in 786-O cells treated with 50 μM of cyclo-CRLII(4-iodo)F compared to a 50% decrease in 786-O cells treated with PT2399. […]
(§2) Realtime PCR (qPCR) Assay
(§3) Cells were plated on 6cm dishes at 80% confluency and incubated overnight under normoxic conditions. The cells were then treated with compound and incubated for 18 hours in hypoxic conditions. After treatment, the cells were washed with PBS and lysed under hypoxic conditions. The total RNA was extracted from the cells using a commercial RNA extraction kit (Fisher Scientific) following the manufacturer's instructions. A commercial reverse transcription kit (Promega) was used to generate cDNA. The MyTaq™ Mix master mix and appropriate primers targeting CAIX and VEGF were used to perform the qPCR reaction using a qPCR machine (Bio-Rad).

In another experiment the test system is VEGF gene in 786-O cells. Nature of the experiment: qPCR of HIF-2-driven VEGF in 786-O cells. The format is cell-based. Conditions: 2 μM. The method, then: as §1, §2
Cells were plated on 6cm dishes at 80% confluency and incubated overnight under normoxic conditions. The cells were then treated with compound and incubated for 18 hours in hypoxic conditions. After treatment, the cells were washed with PBS and lysed under hypoxic conditions. The total RNA was extracted from the cells using a commercial RNA extraction kit (Fisher Scientific) following the manufacturer's instructions. […]

Experiment [3] deals with CAIX and VEGF genes in Panc-1 cells. Nature of the experiment: qPCR of hypoxia-response genes in Panc-1 cells. Conditions: hypoxic Panc-1 cells, 2 μM. Type of experiment: cell-based. The method, then: as §1, §2, §3
In another experiment the target is T1, HIF-2α PAS-B domain (Homo sapiens, UniProt Q99814).
T1 construct: made in house
T1 sequence (Q99814 240-350 limits assumed): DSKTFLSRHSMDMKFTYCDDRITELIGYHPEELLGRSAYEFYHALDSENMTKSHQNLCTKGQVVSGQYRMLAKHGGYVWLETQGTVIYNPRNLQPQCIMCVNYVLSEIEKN
The experiment is described as follows: MST binding to the PAS-B domain of HIF-2α. Conditions: MST; for Kd: mean (n = 2) ± SEM. As for the experimental part:
(§4) All reagents were purchased from Fisher Scientific or Sigma Aldrich UK unless specified otherwise.
(§5) Restriction enzymes and microbiology reagents were purchased from New England Biolabs Inc., Fisher Scientific (UK) or Promega (UK) and were used as directed by the manufacturer. Primers and oligonucleotides were synthesised by Integrated DNA Technologies (UK). DNA sequencing was carried out by Eurofins MWG Operon (Germany).
(§6) Construction of the RTHS and SICLOPPS library, screening, purification of recombinant HIF proteins, and the PLA was conducted as previously described in Miranda et al., J. Am. Chem. Soc., 2013, 135(28); […]
(§7) Protein labelling with MST dye
(§8) Protein was buffer exchanged from storage buffer into labelling buffer (0.1 M NaHCO3, pH 8.5) using a PD spintrap G-25 column (GE healthcare). The protein concentration was then adjusted to 20 µM.
(§9) The commercially sourced MST dye (NanoTemper) was prepared as a 470 µM solution in DMSO, which was then further diluted to 60 µM using labelling buffer. To the protein solution was added an equal volume of dye solution, and the labelling reaction was left for 1 hour in the dark at room temperature.
(§10) The labelled protein was separated from unreacted dye by elution through a PD minitrap G-25 column (GE healthcare). Labelled protein was then aliquoted and stored at -80 °C. Extent of labelling was measured by the absorbance obtained using the UV-vis mode on a NanoDrop ND-1000 Spectrophotometer (NanoDrop Technologies, USA).
(§11) Labelled protein was thawed on ice and diluted to 50 nM in assay buffer containing 50 mM Tris pH 8.0, 150 mM NaCl, 5% (v/v) glycerol, 1 mM TCEP and 0.05% TWEEN-20. The protein solution was then centrifuged at 12000 rpm for 15 minutes at 4 °C and left on ice. Compounds were prepared and serially diluted in DMSO at 10x assay concentration, before diluting to 2x assay concentration in assay buffer.
(§12) The 2x compound solutions were then mixed 1:1 (v/v) with 50 nM labelled protein solution and left to incubate for 1 hour at room temperature. Solutions were then loaded into Monolith NT.115 Premium Capillaries (NanoTemper) and placed in the sample tray. MST experiments were carried out

Another experiment addresses T2, HIF-1α PAS-B domain (Homo sapiens, UniProt Q16665).
T2 construct: made in house
Nature of the experiment: MST binding to the PAS-B domain of HIF-1α. The settings on record: MST; for Kd: mean ± SEM, n = 2 (n = 1 for most C1 analogues, n = 3 in Figure S2), read-out: KD for HIF-1α PAS-B. The method, then: as §4, §5, §6, §7, §8, §9, §10, §11, §12

Experiment [4] relates to HIF-driven expression of YFP in T-REx-293 reporter cell line. The experiment is described as follows: HRE-YFP reporter assay in hypoxia. The format is cell-based, human. Conditions: T-Rex-293 HRE-YFP reporter. The source says:
Following in vitro characterization and optimization of binding, we next assessed the effect of our cyclic peptides in mammalian cells. A cell line with a stably integrated reporter was constructed, in which the expression of yellow fluorescent protein (YFP) was placed under the control of a HRE. Thus, hypoxia would be expected to increase YFP expression (and subsequent fluorescence) in these cells, whereas treatment with a cell-permeable HIF inhibitor would be expected to reduce this fluorescence signal. A fusion cassette was designed containing the YFP gene preceded by three copies of the HRE sequence. This cassette was stably integrated into T-REx-293 cells as previously described.[12] […] The effect of this compound on the viability of T-Rex-293 was assessed with no effect observed at doses up to 75 μM (Figure S9a). […] It should be noted that the relative activity of each compound in this assay will be a combination of its cell permeability and HIF-inhibiting activity. […] We therefore continued to further characterize the cell activity of the 4-iodo-phenylalanine derivative. […]
Generation of HRE-eYFP integrated cell line
The Flp-In System (Fisher) was used to generate a constitutive expression cell line that expresses eYFP under the control of the VEGF HRE. The coding sequence of the yellow fluorescent protein (eYFP) was cloned downstream of the VEGF HRE sequence in the pcDNA5 plasmid, such that the entire cassette was under the regulation of a Tet-On gene expression system. The plasmid was transfected into a human embryonic kidney cell line (Flp-In™-293) and integrated using the manufacturer’s protocol.
Activity Assessment using Flp-In-HRE-eYFP cell line
The Flp-In-HRE-eYFP cells were plated on 24-well plates at 80% confluency and incubated overnight under normoxic conditions. The cells were then treated with different concentrations of compound and incubated for 18 hours under hypoxic conditions. After treatment, the cells were washed with PBS and lysed to extract the total cellular protein. The cell extract was cold centrifuged for 20 minutes at 14,000 RPM. An equal amount of the supernatant from each treatment was plated on a 96-well plate, and the emission of eYFP was measured using a microplate reader. […]

SMILES strings stand for the structures. Where a SMILES comes first, the peptide text is derived from it. [ ]: non-standard residue; d: D form. Phe(4-NO2) = N[C@@H](Cc1ccc([N+](=O)[O-])cc1)C(=O)O; Bpa = N[C@@H](Cc1ccc(C(=O)c2ccccc2)cc1)C(=O)O Where only a bound is given, the exact number is not on record here.

T2 sequence (Q16665 238-349 limits assumed): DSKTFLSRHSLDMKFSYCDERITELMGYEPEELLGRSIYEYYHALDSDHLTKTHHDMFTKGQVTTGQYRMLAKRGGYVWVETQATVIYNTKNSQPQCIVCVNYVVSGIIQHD

For the molecule `CS(=O)(=O)c1ccc(Oc2cc(F)cc(C#N)c2)c2c1[C@H](O)[C@H](F)[C@@H]2F` [belzutifan], the patients responded in experiment [1] is given as 49%.

Consider `N#Cc1cc(F)cc(Oc2ccc(S(=O)(=O)C(F)F)c3c2CC(F)(F)[C@H]3O)c1` [PT2399, reference compound], for which, in experiment [2], the “inhibition of hypoxia-driven expression of CAIX” value is recorded as “did not inhibit” and the “inhibition of hypoxia-driven expression of VEGF” value is on record as “did not inhibit”. For the same molecule, the “decrease in HIF-2-driven VEGF transcription” value with VEGF gene in 786-O cells came to 50%. Further, in experiment [3], the “drop in CAIX transcription” value was 23% and the “drop in VEGF transcription” value turned out to be 53%.

As to `CC[C@H](C)[C@@H]1NC(=O)[C@H](CC(C)C)NC(=O)[C@H](CCCNC(=N)N)NC(=O)[C@H](C)NC(=O)[C@H](Cc2ccccc2)NC(=O)[C@H]([C@@H](C)CC)NC1=O` [cyclo-ARLIIF] (cyclo(ARLIIF)), the Kd on HIF-2α PAS-B domain and at HIF-1α PAS-B domain was above 100 µM in each case.

For the molecule `CC[C@H](C)[C@@H]1NC(=O)[C@H](CC(C)C)NC(=O)[C@H](CCCNC(=N)N)NC(=O)[C@H](CS)NC(=O)[C@H](Cc2ccc(C(=O)c3ccccc3)cc2)NC(=O)[C@H]([C@@H](C)CC)NC1=O` [(4-Bz)F, cyclo-CRLII(4-Bz)F] (cyclo([Bpa]CRLII)), the “relative activity among the 9 most potent cyclo-CRLIIF derivatives on YFP expression” value in experiment [4] was “most active”.

Turning to `CC[C@H](C)[C@@H]1NC(=O)[C@H](CC(C)C)NC(=O)[C@H](C)NC(=O)[C@H](CS)NC(=O)[C@H](Cc2ccccc2)NC(=O)[C@H]([C@@H](C)CC)NC1=O` [cyclo-CALIIF] (cyclo(ALIIFC)), the results for the Kd at HIF-2α PAS-B domain and at HIF-1α PAS-B domain were 12.5 ± 0.4 µM and 30.6 ± 0.3 µM, respectively.

Consider `CC[C@H](C)[C@@H]1NC(=O)[C@H](CC(C)C)NC(=O)[C@H](CCCNC(=N)N)NC(=O)[C@H](CS)NC(=O)[C@H](C)NC(=O)[C@H]([C@@H](C)CC)NC1=O` [cyclo-CRLIIA], for which the Kd at HIF-2α PAS-B domain is above 100 µM; on HIF-1α PAS-B domain it was 80.2 ± 27.3 µM.

Take `CC[C@H](C)[C@@H]1NC(=O)[C@H](CC(C)C)NC(=O)[C@H](CCCCN)NC(=O)[C@H](CS)NC(=O)[C@H](Cc2ccccc2)NC(=O)[C@H]([C@@H](C)CC)NC1=O` [cyclo-CKLIIF] (cyclo(CKLIIF)): the “Hill slope of binding curve to HIF-2α” value at HIF-2α PAS-B domain came to 1.38. Besides, the “Hill slope of binding curve to HIF-1α” value on HIF-1α PAS-B domain is listed as 1.33.

As to `CC[C@H](C)[C@@H]1NC(=O)[C@H](CC(C)C)NC(=O)[C@H](CCCNC(=N)N)NC(=O)[C@H](CS)NC(=O)[C@H](Cc2ccccc2)NC(=O)[C@H](C)NC1=O` [cyclo-CRLIAF], the Kd on HIF-2α PAS-B domain and at HIF-1α PAS-B domain was above 100 µM each time.

Consider `CC[C@H](C)[C@@H]1NC(=O)[C@H](C)NC(=O)[C@H](CC(C)C)NC(=O)[C@H](CCCNC(=N)N)NC(=O)[C@H](CS)NC(=O)[C@H](Cc2ccccc2)NC1=O` [cyclo-CRLAIF] (cyclo(CRLAIF)), for which the Kd at HIF-2α PAS-B domain came out at 61 ± 9.1 µM; at HIF-1α PAS-B domain, 12.8 ± 3.6 µM.

Regarding `CC[C@H](C)[C@@H]1NC(=O)[C@H](CC(C)C)NC(=O)[C@H](CCCNC(=N)N)NC(=O)[C@H](CS)NC(=O)[C@H](Cc2ccc([N+](=O)[O-])cc2)NC(=O)[C@H]([C@@H](C)CC)NC1=O` [NO2, cyclo-CRLII(4-NO2)F] (cyclo(CRLII[Phe(4-NO2)])), the “relative activity among the 9 most potent cyclo-CRLIIF derivatives on YFP expression” value in experiment [4] is reported as “least active”. In addition, the Kd on HIF-1α PAS-B domain was found to be 3.3 ± 0.1 µM.

The values above are taken from article PMC10996005, “Identification and Development of Cyclic Peptide Inhibitors of Hypoxia Inducible Factors 1 and 2 That Disrupt Hypoxia-Response Signaling in Cancer Cells” (Journal of the American Chemical Society, 2024).
